# What was measured:
# L1210 leukemia cells [1] = system: L1210 leukemia cells
# L1210 leukemia cells [2] = assay: Tumorigenicity of in vitro treated leukemia cells in BDF1 recipients; type: in vivo, BDF1 mice; settings: for MST: L1210, control 10
# Experimental: All in vitro PTT.119 and L-PAM treatment of cells were carried out at 37° C. in the appropriate complete growth media containing 10% or 18% sera. L1210, L1210/L-PAM and P388/L-PAM cell suspensions of 1×10^6 cells/ml were subjected to a single 15, 30 or 60 min pulse exposure to 3.75, 7.5 and 15 uM PTT.119 or L-PAM. Following treatment, media were removed by pelleting the cells at 200×g for 9 min at 5° C. Cells were then gently washed twice with fresh growth media and finally resuspended in RPMI-1630 medium with 10% FBS for in vitro cultures.
# Suspensions of PTT.119 or L-PAM treated cells, and control leukemia cells were adjusted to 1×10^7 cells/ml based on tumor cell concentrations prior to drug exposure. Syngeneic female BDF1 (BALB/c×DBA/2)f, mice weighing 20 to 26 g received intraperitoneal injections of 1×10^6 cells. Mice were monitored daily throughout the 45 day examination period and were autopsied at the time of death.
# [3] = system: MJY-alpha mammary tumor cells; assay: Tumor cell survival after pulse treatment; type: cell-based, Mouse; settings: for Percent Tumor Cell Survival: viability 24 hr later
# Experimental: (§1) MJY-alpha mammary tumor cell layers were initiated at 2×10^5 cells/2 cm^2 well (Nuncion Multidish 4, Vangard International, Neptune, NJ) using cells spontaneously released into the medium from confluent 6-8 day old cell layers. B-16 melanoma cells obtained from 4-day-old cell confluent cultures by trypsinization with STV were plated at 2.2×10^5 cells/cm^2 well. These seeding densities yielded lightly confluent layers (2.3-2.6×10^5 cell/cm^2). following treatment the layers were rinsed twice and reincubated with growth media: media were changed daily until the cultures were terminated.
# (§2) Survival of tumor cell layers or suspensions was ascertained using 0.5% trypan blue in 0.1M phosphate-buffered saline, pH 7.25. Cell layers were released from the Multidish-4 wells with 0.5 ml STV, diluted 2 to 10 fold with the vital strain; tumor cells in suspension cultures were directly mixed 1:1 with the trypan blue dye. Tumor cells were enumerated using a haemocytometer; all 10 fields were counted for every sample. Percent viable cells was determined by direct comparison of the numbers of cells excluding trypan blue in treated cultures to those in untreated or diluent-treated parallel cultures. There were no significant differences in the viability of cells treated with diluent when compared to untreated cells.
# (§3) To delineate the minimum concentration and duration of the tripeptide compound exposure to induce cytolysis, MJY-alpha and B-16 melanoma cell layers and L-1210 leukemia cell suspensions were exposed to 0.5 to 50 ug of the tripeptide compound per ml of solvent for 0.25 to 4 hours. The tripeptide compound was then removed and the cells washed and reincubated in media growth. Tumor cell viability was determined 24 hrs after pulse tripeptide compound exposure. Cell survival of all three tumor cell lines was reduced by an exposure period of as short as 15 min (Table 4). The degree of cytolysis increased with extension of the treatment periods from 15 min to 4 hrs, although the decreases in cell survival were not proportional to the duration of the exposure. […] Comparison of the data in Tables 2 and 4 reveal that cells exposed to the tripeptide compound for one hour were irreversibly damaged when assayed a day later despite their apparent viability immediately after treatment.
# (§4) The reversibility of the cancericidal activity of the tripeptide compounds on L-1210 leukemia, MJY-alpha mammary tumor and B-16 melanoma cells was also monitored in the nonhostile tissue culture environment. Cell suspensions of these tumor models were treated with tripeptide for 15 to 240 min, washed and either inoculated into mice or maintained as suspension (L-1210) or monolayer cultures (MJY-alpha and B-16). Reductions in tumor cells survival were negligible (0-6%) in all three tumor systems at initiation of in vitro cultures following treatment with 50 ug tripeptide/ml for as long as 4 hrs. However, significant decreases in cellular viabilities of L-1210 leukemia (FIG. 9), MJY-alpha mammary tumor (FIG. 10) and B-16 melanoma (FIG. 11) tumor cells were observed 24 hr following tripeptide exposure and for the next 6 days.
# B-16 melanoma cells = assay: Tumor cell survival after pulse treatment; type: cell-based, Mouse; settings: for Percent Tumor Cell Survival: viability 24 hr later
# Experimental: as §1, §2, §3, §4
# L-1210 leukemia = assay: In vivo therapy of mice inoculated intraperitoneally with L-1210 leukemia; parameters: species or system DBA/2 mice
# [4] = 50 ug/ml for as long as 4 hrs (all three tumor systems)
# [5] = single dose 10, 15, and 20 mg/kg 48 hours after inoculation
compound,measurement,setting,value
"CCOC(=O)[C@H](CCSC)NC(=O)[C@H](Cc1cccc(N(CCCl)CCCl)c1)NC(=O)[C@@H](N)Cc1ccc(F)cc1.Cl [PTT.119, 3-(p-fluorophenyl)-L-alanyl-3-[m-bis(2-chloroethyl)aminophenyl]-L-alanyl-L-methionine ethyl ester hydrochloride]",cytotoxicity lower compared to untreated L1210 cells,L1210 leukemia cells [1],20-30%
same,"dose response curves of L1210, L1210-T1 and L1210-T2",L1210 leukemia cells [1],no differences could be detected
same,viability in continuous treatment,L1210 leukemia cells [1],nonviable
same,viability of L1210-T1 in continuous treatment,L1210 leukemia cells [1],nonviable
same,MST,"L1210 leukemia cells [2]; 7.5 uM, 30 min",21 days
same,MST,"L1210 leukemia cells [2]; 7.5 uM, 60 min",32 days
same,MST,"L1210 leukemia cells [2]; 15 uM, 15 min",8 days
same,mice free of tumor at end of 45-day examination period,"L1210 leukemia cells [2]; L1210 cells, 7.5 and 15 uM, every group",80-100%
same,Percent Tumor Cell Survival,"[3]; 5 ug/ml, pulse 1 hr",89%
same,Percent Tumor Cell Survival,"[3]; 5 ug/ml, pulse 2 hr",77%
same,Percent Tumor Cell Survival,"[3]; 5 ug/ml, pulse 4 hr",76%
same,Percent Tumor Cell Survival,"[3]; 5 ug/ml, pulse .5 hr",94%
same,Percent Tumor Cell Survival,"[3]; 10 ug/ml, pulse 1 hr",70%
same,Percent Tumor Cell Survival,"[3]; 10 ug/ml, pulse 2 hr",64%
same,Percent Tumor Cell Survival,"[3]; 10 ug/ml, pulse 4 hr",48%
same,Percent Tumor Cell Survival,"[3]; 10 ug/ml, pulse .25 hr",68%
same,Percent Tumor Cell Survival,"[3]; 10 ug/ml, pulse .5 hr",67%
same,Percent Tumor Cell Survival,"[3]; 25 ug/ml, pulse 1 hr",51%
same,Percent Tumor Cell Survival,"[3]; 25 ug/ml, pulse 2 hr",46%
same,Percent Tumor Cell Survival,"[3]; 25 ug/ml, pulse 4 hr",44%
same,Percent Tumor Cell Survival,"[3]; 25 ug/ml, pulse .25 hr",61%
same,Percent Tumor Cell Survival,"[3]; 25 ug/ml, pulse .5 hr",37%
same,reductions in tumor cell survival at initiation of in vitro cultures,[3]; [4],0-6%
same,Percent Tumor Cell Survival,"[3]; 50 ug/ml, pulse 1 hr",41%
same,Percent Tumor Cell Survival,"[3]; 50 ug/ml, pulse .25 hr",45%
same,Percent Tumor Cell Survival,"[3]; 50 ug/ml, pulse .5 hr",32%
same,Percent Tumor Cell Survival,"B-16 melanoma cells; 5 ug/ml, pulse 1 hr",88%
same,Percent Tumor Cell Survival,"B-16 melanoma cells; 5 ug/ml, pulse 2 hr",66%
same,Percent Tumor Cell Survival,"B-16 melanoma cells; 5 ug/ml, pulse 4 hr",79%
same,Percent Tumor Cell Survival,"B-16 melanoma cells; 5 ug/ml, pulse .5 hr",93%
same,Percent Tumor Cell Survival,"B-16 melanoma cells; 10 ug/ml, pulse 1 hr",68%
same,Percent Tumor Cell Survival,"B-16 melanoma cells; 10 ug/ml, pulse 2 hr",73%
same,Percent Tumor Cell Survival,"B-16 melanoma cells; 10 ug/ml, pulse 4 hr",63%
same,Percent Tumor Cell Survival,"B-16 melanoma cells; 10 ug/ml, pulse .5 hr",75%
same,Percent Tumor Cell Survival,"B-16 melanoma cells; 25 ug/ml, pulse 1 hr",60%
same,Percent Tumor Cell Survival,"B-16 melanoma cells; 25 ug/ml, pulse 2 hr",56%
same,Percent Tumor Cell Survival,"B-16 melanoma cells; 25 ug/ml, pulse 4 hr",52%
same,Percent Tumor Cell Survival,"B-16 melanoma cells; 25 ug/ml, pulse .25 hr",82%
same,Percent Tumor Cell Survival,"B-16 melanoma cells; 25 ug/ml, pulse .5 hr",67%
same,reductions in tumor cell survival at initiation of in vitro cultures,B-16 melanoma cells; [4],0-6%
same,Percent Tumor Cell Survival,"B-16 melanoma cells; 50 ug/ml, pulse 1 hr",48%
same,Percent Tumor Cell Survival,"B-16 melanoma cells; 50 ug/ml, pulse .25 hr",65%
same,Percent Tumor Cell Survival,"B-16 melanoma cells; 50 ug/ml, pulse .5 hr",62%
same,mean survival time,"L-1210 leukemia; single dose 10, 15, and 20 mg/kg 48 hours after 10^6 L-1210 cells i.p., from 8 days",30 days
same,"apparent cure, share of treated animals",L-1210 leukemia; [5],30%
same,increase of the mean survival time,L-1210 leukemia; [5],275%
